Assay results published in patent US6509010B2, “Cosmetic products for the reduction of sweat acidity” (Unilever Home & Personal Care USA, division of Conopco, Inc., priority 2001, dated 2003).
Where two headings read alike, the source gives them in different places.

Experiments:
[1] = test system: V-ATPase; test: Proton transfer inhibition: intracellular pH recovery after ammonium chloride pulse in isolated, microperfused human eccrine sweat reabsorptive ducts (BCECF-type probe); format: cell-based; details: for Inhibition of proton transfer out of the cells of the reabsorptive duct: significant at the 95% level (Student t-test); for Rate of pH recovery (%): control = 100, after 20 mM basolateral ammonium chloride pulse, 37° C.
V-ATPase, sequence (P27449 whole entry, the tested form may be a part): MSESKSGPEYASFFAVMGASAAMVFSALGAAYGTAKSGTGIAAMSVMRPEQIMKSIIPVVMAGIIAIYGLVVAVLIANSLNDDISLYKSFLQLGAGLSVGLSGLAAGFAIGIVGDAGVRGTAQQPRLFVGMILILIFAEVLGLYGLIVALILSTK
Protocol: Human eccrine sweat ducts were isolated using the Kealey shearing technique (Lee C. M., Jones C. J., and Kealey T., J. Cell. Sci., 72, 1984, 259-274). Isolated portions of reabsorptive duct were mounted on a conventional microperfusion apparatus, between glass pipettes. One end of the duct was cannulated with a microperfusion pipette. The ducts were perfused at 37° C. with a control solution containing N-methyl-D-glucamine chloride (114 mM), potassium hydrogenphosphate (2.5 mM), magnesium chloride (1 mM), calcium chloride (1 mM), glucose (5 mM), and N-methyl-D-glucamine lactate (4 mM). Osmolality was adjusted to 300 mOsm/kg with mannitol and the pH adjusted to 7.4 with tris-HEPES. Intracellular pH was measured using the pH sensitive fluorescent probe BCEFC (bis-2-carboxyethyl-carbfluorescein) at 5 μM.
[…].
In the next part of the procedure, the indicated sweat ducts were subjected to acidification by a 20 mM basolateral pulse of ammonium chloride, with the additional presence of a V-ATPase inhibitor.

[2] = test system: Staphylococcus epidermidis; details: 80% or greater reduction in growth over 16 to 24 hours at 37° C., cited from earlier work

For olygomycin, the “Inhibition of proton transfer out of the cells of the reabsorptive duct” value (“Inhibition” for short) ([1]; at 20 μg/ml) was “inhibit proton transfer” and the “Rate of pH recovery (%)” value ([1]; inhibitor at 20 μg/ml) was 12%.

In the case of `CC(C)=CCCC(C)=CCCC(C)=CCO` [farnesol, 3,7,11-trimethyldodeca-2,6,10-trienol], the MIC ([2]; literature values) is given as “ca. 25 μg.ml^−1”.

In the case of `Oc1cc(Cl)ccc1Oc1ccc(Cl)cc1Cl` [triclosan, 2′,4,4′-trichloro,2-hydroxy-diphenyl ether], the MIC ([2]; literature values) is listed as 0.01 to 10 µg/mL.

With `CO/C1=C\C(C)=C\[C@@H](C)[C@@H](O)[C@@H](C)C/C(C)=C/C=C/[C@H](OC)[C@@H]([C@@H](C)[C@@H](O)[C@H](C)[C@@]2(O)C[C@@H](O)[C@H](C)[C@@H](C(C)C)O2)OC1=O` [Bafilomycin-A1, bafilomycin A1] the “Inhibition” value ([1]; at 6.2 μg/ml) was “inhibit proton transfer” and the “Rate of pH recovery (%)” value ([1]; inhibitor at 6.2 μg/ml) was 27%.

For `CCO` [ethanol], the MIC ([2]; stated without source) is listed as “greater than 1 mg.ml^−1”.

With `C/C=C/[C@H]1O[C@@](O)([C@@H](C)[C@H](O)[C@H](C)[C@H]2OC(=O)/C(OC)=C/C(C)=C/[C@@H](C)[C@@H](O)[C@@H](CC)[C@@H](O)[C@H](C)C/C(C)=C/C=C/[C@@H]2OC)C[C@@H](O[C@H]2C[C@@H](O)[C@H](OC(N)=O)[C@@H](C)O2)[C@@H]1C` [Concanamycin-A, concanamycin A] the “Inhibition” value ([1]; at 0.1 μg/ml) was “inhibit proton transfer” and the “Rate of pH recovery (%)” value ([1]; inhibitor at 0.1 μg/ml) was 5%.
